Legend:
MAPK14 (mouse) = experiment: Assessment of MAPK14 Kinase Activity in RAW 264.7 Cells
MAPK14 (human) = MAPK14 (human) (UniProt Q16539); experiment: Inhibition of MAPK14 Kinase Activity
Chain of MAPK14 (human) (Q16539 whole entry, looked up): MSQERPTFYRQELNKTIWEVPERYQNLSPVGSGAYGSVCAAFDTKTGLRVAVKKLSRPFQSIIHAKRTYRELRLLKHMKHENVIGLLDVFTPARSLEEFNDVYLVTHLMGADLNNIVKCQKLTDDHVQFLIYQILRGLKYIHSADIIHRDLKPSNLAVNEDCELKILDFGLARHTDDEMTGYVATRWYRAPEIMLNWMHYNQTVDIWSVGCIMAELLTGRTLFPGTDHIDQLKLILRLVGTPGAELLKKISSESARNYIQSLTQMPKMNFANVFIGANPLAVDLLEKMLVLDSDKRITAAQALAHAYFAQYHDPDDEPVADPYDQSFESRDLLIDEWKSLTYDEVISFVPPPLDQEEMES

| IC50 (MAPK14 (mouse)) [nM] | IC50 (MAPK14 (human)) [nM] | SMILES |
| --- | --- | --- |
| 39 | – | CC(C)(C)Cn1c(N)nc2ccc(-c3[nH]c(-c4c(F)cccc4Cl)nc3-c3ccccc3)nc21 |
| 64.7 | 3.7 | CC(C)Cn1c(N)nc2ccc(-c3[nH]c(-c4c(Cl)cccc4Cl)nc3-c3ccccc3)nc21 |
| 23 | 3.6 | CC(C)(C)Cn1c(N)nc2ccc(-c3[nH]c(-c4c(Cl)cccc4Cl)nc3-c3ccc(F)cc3)nc21 |
| – | 7.2 | CC(C)(C)Cn1c(N)nc2ccc(-c3[nH]c(-c4c(F)cccc4F)nc3-c3ccc(F)cc3)nc21 |

The next lines start with the compound.

| SMILES | IC50 (MAPK14 (mouse)) [nM] | IC50 (MAPK14 (human)) [nM] |
| --- | --- | --- |
| CC(C)Cn1c(N)nc2ccc(-c3[nH]c(C(C)(C)C)nc3-c3ccc(F)cc3F)nc21 | 41.8 | – |
| CC(C)Cn1c(N)nc2ccc(-c3[nH]c(-c4c(Cl)cccc4Cl)nc3-c3ccc(F)cc3F)nc21 | 31.2 | – |
| CC(C)(C)Cn1c(N)nc2ccc(-c3[nH]c(C(C)(C)C)nc3-c3ccc(F)cc3F)nc21 | 20.7 | – |
| CC(C)Cn1c(N)nc2ccc(-c3[nH]c(C(C)(C)C)nc3-c3ccccc3)nc21 | 66.4 | 5.1 |
| CC(C)(C)Cn1c(N)nc2ccc(-c3[nH]c(C(C)(C)C)nc3-c3ccc(F)cc3)nc21 | 34.3 | 7 |

— the Kinase Knowledgebase extract (Sharma et al. 2016)
